These results are taken from ChEMBL document CHEMBL4340530, “Peptide-based covalent inhibitors of MALT1 paracaspase” (Bioorg Med Chem Lett, 2019).

The test system of one assay is OCI-Ly3. Nature of the assay: Antiproliferative activity against human OCI-LY3 cells assessed as growth inhibition treated every 48 hrs measured after 96 hrs by CellTiter-Glo assay. The assay is classed as functional. (In general: Cellular ATP, detected with luciferase, serves as a proxy for viable cell number.)
Assay [1] deals with T1, Mucosa-associated lymphoid tissue lymphoma translocation protein 1 (Homo sapiens) (UniProt Q9UDY8).
T1 sequence (whole entry): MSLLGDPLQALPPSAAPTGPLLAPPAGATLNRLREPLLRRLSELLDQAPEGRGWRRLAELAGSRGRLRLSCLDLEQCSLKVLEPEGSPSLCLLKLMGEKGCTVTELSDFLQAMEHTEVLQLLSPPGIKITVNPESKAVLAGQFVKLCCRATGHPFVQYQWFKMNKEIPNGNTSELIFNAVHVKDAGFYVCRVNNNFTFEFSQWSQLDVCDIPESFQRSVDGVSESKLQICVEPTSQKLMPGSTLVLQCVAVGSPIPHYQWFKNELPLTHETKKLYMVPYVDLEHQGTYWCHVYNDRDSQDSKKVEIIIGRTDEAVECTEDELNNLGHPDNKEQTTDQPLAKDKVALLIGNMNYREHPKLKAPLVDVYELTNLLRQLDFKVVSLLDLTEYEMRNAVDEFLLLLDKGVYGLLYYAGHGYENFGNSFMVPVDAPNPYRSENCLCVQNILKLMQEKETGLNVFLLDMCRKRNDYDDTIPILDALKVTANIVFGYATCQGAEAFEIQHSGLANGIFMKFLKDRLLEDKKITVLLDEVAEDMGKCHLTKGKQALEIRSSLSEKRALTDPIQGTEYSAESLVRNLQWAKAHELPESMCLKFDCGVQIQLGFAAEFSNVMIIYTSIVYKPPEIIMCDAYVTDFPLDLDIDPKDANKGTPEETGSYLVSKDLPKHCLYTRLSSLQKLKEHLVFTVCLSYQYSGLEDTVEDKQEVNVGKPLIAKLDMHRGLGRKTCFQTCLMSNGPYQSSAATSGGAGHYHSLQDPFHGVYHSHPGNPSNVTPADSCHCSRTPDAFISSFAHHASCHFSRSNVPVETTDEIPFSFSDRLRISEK
Nature of the assay: Inhibition of MALT1 (unknown origin) expressed in PMA/IO-stimulated human Raji Glosensor cells by reporter gene assay. The assay is classed as cell-based. On the technique in general: A reporter such as luciferase makes a cellular process visible.

The next assay concerns OCI-Ly1. Nature of the assay: Antiproliferative activity against human OCI-LY1 cells up to 20 uM. Format: functional, cell-based.
The target of assay [2] is T2, Mucosa-associated lymphoid tissue lymphoma translocation protein 1 (Homo sapiens, UniProt Q9UDY8).
T2 sequence (Q9UDY8 whole entry): T1 sequence (whole entry)
Nature of the assay: Inhibition of recombinant LZ-fused MALT1 (340 to 789 residues) (unknown origin) using Ac-LRSR-AMC as substrate by fluorescence assay.

Active and inactive are the calls of the source. The calls are words filed in the database; no cut-off is given here. Numbered stars: 1 amine (or outer) side, 2 acyl side, 3 side chain; on linkers, the order of the positions; unused ones are H or OH. Square brackets hold non-standard residues; d marks the D form. Peptide text beside a SMILES is read from it. * marks the point of attachment. cisHyp = O=C(O)[C@@H]1C[C@H](O)CN1; NMeR = CN[C@@H](CCCNC(=N)N)C(=O)O; Hyp = O=C(O)[C@@H]1C[C@@H](O)CN1; Chg = N[C@H](C(=O)O)C1CCCCC1; Phg = N[C@H](C(=O)O)c1ccccc1; Tle = CC(C)(C)[C@H](N)C(=O)O; NMeV = CN[C@H](C(=O)O)C(C)C; αMeP = C[C@@]1(C(=O)O)CCCN1; Pip = O=C(O)[C@@H]1CCCCN1; Ac6c = NC1(C(=O)O)CCCCC1; Ac5c = NC1(C(=O)O)CCCC1; Cbz = O=C(OCc1ccccc1)*; CO = O=C([*:1])[*:2]; Bz = O=C(c1ccccc1)*; NHPh = c1ccc(N*)cc1; CH2F = FC* Bounds are passed on as bounds.

As a reminder, the GI50 is the concentration at which growth is held to half of that of the control. `CC(C)[C@H](NC(=O)c1ccc(Cl)cc1)C(=O)N1CCC[C@H]1C(=O)N[C@@H](CCCNC(=N)N)C(=O)CF`: the GI50 with OCI-Ly3 was 1.24 µM. As a reminder, the IC50 is the concentration that inhibits the measured activity by half. High values mean lower potency, low ones higher potency. Regarding `CC(C)[C@H](NC(=O)OCc1ccccc1)C(=O)N1C[C@H](O)C[C@H]1C(=O)N[C@@H](CCCNC(=N)N)C(=O)CF` (Cbz-Val-[Hyp]-Arg-CH2F), the GI50 in the assay on OCI-Ly3 came out at 0.29 µM. Besides, in assay [1], inhibition was half-maximal at 0.209 µM (IC50). For `CC(C)C[C@H](NC(=O)OCc1ccccc1)C(=O)N1CCC[C@H]1C(=O)N[C@@H](CCCNC(=N)N)C(=O)CF` (Cbz-Leu-Pro-Arg-CH2F), the GI50 in the assay on OCI-Ly3 was determined as 5.49 µM. On the same count and under the same terms, for `CC(C)[C@H](NC(=O)c1ccc(C#N)cc1)C(=O)N1CCC[C@H]1C(=O)N[C@@H](CCCNC(=N)N)C(=O)CF` the value was 6.66 µM; for `N=C(N)NCCC[C@H](NC(=O)[C@@H]1C[C@@H](O)CN1C(=O)[C@@H](NC(=O)c1ccc(Br)cc1)C1CCCCC1)C(=O)CF`, 0.06 µM.

For the compound `N=C(N)NCCC[C@H](NC(=O)[C@@H]1CCCN1C(=O)[C@H](Cc1ccccc1)NC(=O)OCc1ccccc1)C(=O)CF`, the GI50 with OCI-Ly3 turned out to be 2.2 µM. As for `CC(C)[C@H](NC(=O)c1ccc(Br)cc1)C(=O)N1C[C@H](O)C[C@H]1C(=O)N[C@@H](CCCNC(=N)N)C(=O)CF`, the GI50 with OCI-Ly3 turned out to be 0.07 µM. On the same count and under the same terms, for `CC(C)[C@H](NC(=O)C1CCCCC1)C(=O)N1CCC[C@H]1C(=O)N[C@@H](CCCNC(=N)N)C(=O)CF` the value was 0.94 µM; for `CC(C)[C@H](NC(=O)OCc1ccccc1)C(=O)N1CCCC[C@H]1C(=O)N[C@@H](CCCNC(=N)N)C(=O)CF` (Cbz-Val-[Pip]-Arg-CH2F), 0.73 µM.

Consider `CC(C)[C@H](NC(=O)c1ccc(C(F)(F)F)cc1)C(=O)N1CCC[C@H]1C(=O)N[C@@H](CCCNC(=N)N)C(=O)CF`, for which the GI50 in the assay on OCI-Ly3 was determined as 0.12 µM. Take `N=C(N)NCCC[C@H](NC(=O)[C@@H]1CCCN1C(=O)[C@@H](NC(=O)OCc1ccccc1)C1CCCCC1)C(=O)CF` (Cbz-[Chg]-Pro-Arg-CH2F): the GI50 in the assay on OCI-Ly3 turned out to be 1.45 µM. The same measure, in the same setting: for `COc1ccc(C(=O)N[C@H](C(=O)N2CCC[C@H]2C(=O)N[C@@H](CCCNC(=N)N)C(=O)CF)C(C)C)cc1` the value was 1.67 µM.

Take `CC(C)[C@@H](C(=O)N1CCC[C@H]1C(=O)N[C@@H](CCCNC(=N)N)C(=O)CF)N(C)C(=O)OCc1ccccc1` (Cbz-[NMeV]-Pro-Arg-CH2F): in the assay on OCI-Ly3, the GI50 was greater than 20 µM. Also, the result in the assay on OCI-Ly1 was inactive. As to `CC(C)[C@H](NC(=O)c1ccc(Br)cc1)C(=O)N1COC[C@H]1C(=O)N[C@@H](CCCNC(=N)N)C(=O)CF`, the GI50 in the assay on OCI-Ly3 is 0.12 µM. One may read the Ki as the equilibrium dissociation constant of an inhibitor or competing ligand from its target. With `CC(C)[C@H](NC(=O)OCc1ccccc1)C(=O)N1CCC[C@H]1C(=O)N(C)[C@@H](CCCNC(=N)N)C(=O)CF` (Cbz-Val-Pro-[NMeR]-CH2F), in the assay on OCI-Ly1, the outcome was inactive. Moreover, in assay [2], the Ki was greater than 5 µM.

Turning to `CC(C)[C@H](NC(=O)c1ccccc1Br)C(=O)N1CCC[C@H]1C(=O)N[C@@H](CCCNC(=N)N)C(=O)CF`, the GI50 with OCI-Ly3 worked out at 4.24 µM. On the same count and under the same terms, for `N=C(N)NCCC[C@H](NC(=O)[C@@H]1CCCN1C(=O)C1(NC(=O)OCc2ccccc2)CCCC1)C(=O)CF` (Cbz-[Ac5c]-Pro-Arg-CH2F) the value was 4.31 µM. With `N=C(N)NCCC[C@H](NC(=O)[C@@H]1CCCN1C(=O)[C@@H](NC(=O)c1ccc(Br)cc1)C1CCCCC1)C(=O)CF`, the GI50 in the assay with OCI-Ly3 was 0.13 µM. Consider `N=C(N)NCCC[C@H](NC(=O)[C@@H]1CCCN1C(=O)[C@@H](NC(=O)OCc1ccccc1)c1ccccc1)C(=O)CF` (Cbz-[Phg]-Pro-Arg-CH2F), for which, in the assay on OCI-Ly3, the GI50 was found to be 8.05 µM. As to `CC(C)[C@H](NC(=O)OCc1ccccc1)C(=O)N1C[C@@H](O)C[C@H]1C(=O)N[C@@H](CCCNC(=N)N)C(=O)CF` (Cbz-Val-[cisHyp]-Arg-CH2F), in the assay with OCI-Ly3, the GI50 stood at 1.07 µM. In assay [1], the IC50 came to 0.239 µM. As for `CC(C)(C)[C@H](NC(=O)OCc1ccccc1)C(=O)N1CCC[C@H]1C(=O)N[C@@H](CCCNC(=N)N)C(=O)CF` (Cbz-[Tle]-Pro-Arg-CH2F), the 50% growth inhibitory concentration (GI50) in the assay on OCI-Ly3 is 1.44 µM. Same read-out and setting: for `CC(C)[C@H](NC(=O)OCc1ccccc1)C(=O)N[C@@H](CO)C(=O)N[C@@H](CCCNC(=N)N)C(=O)CF` the value was 0.29 µM. The same measure, in the same setting: for `CC(C)[C@H](NC(=O)OCc1ccccc1)C(=O)N1CCC[C@@]1(C)C(=O)N[C@@H](CCCNC(=N)N)C(=O)CF` (Cbz-Val-[αMeP]-Arg-CH2F) the value was 10.5 µM.

Take `CC(C)[C@H](NC(=O)OCc1ccccc1)C(=O)N[C@@H](CCCNC(=N)N)C(=O)N1CCC[C@H]1C(=O)N[C@@H](CCCNC(=N)N)C(=O)CF`: in the assay on OCI-Ly3, the GI50 was 8.22 µM. Moreover, the outcome with OCI-Ly1 was inactive. Moreover, in assay [2], the Ki came out at 0.14 µM. In the case of `N=C(N)NCCC[C@H](NC(=O)[C@@H]1CCCN1C(=O)C1(NC(=O)OCc2ccccc2)CCCCC1)C(=O)CF` (Cbz-[Ac6c]-Pro-Arg-CH2F), the GI50 in the assay on OCI-Ly3 was 6.23 µM. On the same count and under the same terms, for `CC(C)[C@H](NC(=O)Nc1ccccc1)C(=O)N1CCC[C@H]1C(=O)N[C@@H](CCCNC(=N)N)C(=O)CF` ({NHPh-CO}-Val-Pro-Arg-CH2F) the value was 1.52 µM; for `CC(C)[C@H](NC(=O)c1ccc(Br)cc1)C(=O)N1CC[C@H]1C(=O)N[C@@H](CCCNC(=N)N)C(=O)CF`, 0.77 µM. With `CC(C)[C@H](NC(=O)c1ccc(Br)cc1)C(=O)N1CCC[C@@H]1C(=O)N[C@@H](CCCNC(=N)N)C(=O)CF`, the GI50 in the assay on OCI-Ly3 is greater than 20 µM. The compound also gave an IC50 in assay [1] of 17.5 µM.

`CC(C)[C@H](NC(=O)c1ccc(Br)cc1)C(=O)N1CCOC[C@H]1C(=O)N[C@@H](CCCNC(=N)N)C(=O)CF`: the GI50 with OCI-Ly3 stood at 0.46 µM. For `CC(C)C[C@H](NC(=O)OCc1ccccc1)C(=O)N[C@H](C(=O)N1CCC[C@H]1C(=O)N[C@@H](CCCNC(=N)N)C(=O)CF)C(C)C` (Cbz-LVPR-CH2F), the GI50 with OCI-Ly3 came out at 1.05 µM. The result in the assay with OCI-Ly1 was inactive. Further, the Ki in assay [2] was determined as 0.09 µM. Consider `CC(C)c1ccc(C(=O)N[C@H](C(=O)N2CCC[C@H]2C(=O)N[C@@H](CCCNC(=N)N)C(=O)CF)C(C)C)cc1`, for which the GI50 in the assay on OCI-Ly3 amounted to 0.27 µM. Still for that read-out and setting: for `CC(C)[C@H](NC(=O)c1ccccc1)C(=O)N1CCC[C@H]1C(=O)N[C@@H](CCCNC(=N)N)C(=O)CF` (Bz-Val-Pro-Arg-CH2F) the value was 0.66 µM; for `CC(C)[C@H](NC(=O)c1cccc(Br)c1)C(=O)N1CCC[C@H]1C(=O)N[C@@H](CCCNC(=N)N)C(=O)CF`, 0.53 µM.

As to `CN[C@H](C(=O)N1CCC[C@H]1C(=O)N[C@@H](CCCNC(=N)N)C(=O)CF)C(C)C` (H-[NMeV]-Pro-Arg-CH2F), the GI50 with OCI-Ly3 was greater than 20 µM. Besides, in the assay with OCI-Ly1, the outcome was inactive. The Ki in assay [2] was greater than 0.2 µM.

In the case of `CC(C)[C@H](NC(=O)Nc1ccc(Cl)cc1)C(=O)N1CCC[C@H]1C(=O)N[C@@H](CCCNC(=N)N)C(=O)CF`, in the assay with OCI-Ly3, the GI50 came to 0.78 µM. Still for that read-out and setting: for `N=C(N)NCCC[C@H](NC(=O)[C@H](CO)NC(=O)[C@@H](NC(=O)c1ccc(Br)cc1)C1CCCCC1)C(=O)CF` the value was 0.24 µM. As for `CC(C)[C@H](NC(=O)OCc1ccccc1)C(=O)N1CCC[C@H]1C(=O)N[C@@H](CCCNC(=N)N)C(=O)CF` (Cbz-Val-Pro-Arg-CH2F), the GI50 in the assay with OCI-Ly3 was 8.52 µM. For the same compound, the result in the assay with OCI-Ly1 was inactive. `CC[C@H](C)[C@H](NC(=O)OCc1ccccc1)C(=O)N1CCC[C@H]1C(=O)N[C@@H](CCCNC(=N)N)C(=O)CF` (Cbz-Ile-Pro-Arg-CH2F): the GI50 in the assay on OCI-Ly3 amounted to 2.44 µM.
